# Test results: patent US12553041B2, “Formulations and doses of pegylated uricase” (Cartesian Therapeutics Inc., priority 2019, dated 2026)
# Several values for one entry are separate records, joined by “and”; a condition that tells them apart may be missing. Equal values may be shown once. Read-outs that look alike come from different tables or passages of the source.
# Key:
# [1] = test system: patients with hyperuricemia and gout; conditions: cited from earlier work; for Subjects that required treatment for at least one gout flare: first 8 weeks, with gout flare prophylaxis; for Flares per patient month (flare frequency): worked out from literature data
# [2] = test system: mice genetically deficient in endogenous uricase; assay: Proof of concept study in uricase deficient mice; format: in vivo
# Description: A pharmacology study in mice that were genetically deficient in endogenous uricase was conducted. The study evaluated the efficacy of a dose regimen consisting of three immunizations with SEL 212 followed by doses of pegsiticase alone in preventing the formation of ADAs to pegsiticase. The treatment period consisted of the first 14 days of the study. In the study, mice were separated into three treatment groups. During the treatment period: • the first group, referred to as the Untreated Group, received no treatment; • the second group, referred to as the Pegsiticase Group, was treated with pegsiticase alone; and • the third group, referred to as the SVP Rapamycin+Pegsiticase Group, was treated with SVP Rapamycin co administered with pegsiticase.
# The Pegsiticase Group and SVP Rapamycin+Pegsiticase Group were treated on days zero, seven and 14 of the treatment period. Each group was then treated with pegsiticase alone on days 35 and 42 of the study, or the challenge period. Uricase specific ADA levels were recorded to determine the formation of ADAs to pegsiticase. Uric acid levels were measured to determine effectiveness of SVP Rapamycin co administered with pegsiticase in lowering uric acid levels below 6 mg/dl, which is the treatment target for gout patients.
# [3] = test system: subjects with elevated serum uric acid levels greater than 6 mg/dl; assay: Phase 1a clinical trial, single intravenous infusion of pegsiticase alone; format: in vivo
# Description: The Phase 1a clinical trial for SEL 212 was an ascending dose trial of pegsiticase alone in 22 subjects with elevated serum uric acid levels greater than 6 mg/dl who were separated into five cohorts. Each cohort received a single intravenous infusion of pegsiticase at the following dose levels of 0.1 mg/kg for Cohort #1, 0.2 mg/kg for Cohort #2, 0.4 mg/kg for Cohort #3, 0.8 mg/kg for Cohort #4 and 1.2 mg/kg for Cohort #5. Dosing began with the lowest dose and only after an entire cohort was safely dosed was the next cohort started.
# FIG. 4 depicts average serum uric acid levels of the Phase 1a clinical trial's five cohorts tested at different measurement intervals (Day 7, 14, 21 and 30) during the course of the 30 day period following the single intravenous infusion of pegsiticase at the outset of the trial.
# The serum uric acid levels were measured at baseline and days seven, 14, 21 and 30 and uricase specific ADA levels at baseline and days seven, 14 and 30 following a single intravenous injection of pegsiticase. Uricase specific ADA levels at day 21 in the Phase 1a clinical trial were not measured. Based on the results from the Phase 1a clinical trial, it was observed that pegsiticase at a tolerated dose is capable of achieving and maintaining a reduction of serum uric acid below the target of 6 mg/dl for a 30 day period in the absence of inhibitory uricase specific ADAs.
# nonhuman primates = assay: Proof of concept study in nonhuman primates, uricase specific ADAs; format: in vivo; conditions: pegsiticase alone, five monthly doses; by the end of the study
# Description: A preclinical study to evaluate the ability of SVP Rapamycin to mitigate the formation of uricase specific ADAs in nonhuman primates was also conducted. As depicted in FIG. 3, during the study: • pegsiticase was administered alone, referred to as the Empty Nanoparticle Group, or • was co-administered with one of two dose levels of SVP Rapamycin, referred to as the SVP Rapamycin 0.1× and SVP Rapamycin 1× Groups, respectively. The SVP Rapamycin 0.1× Group received a dose level of SVP Rapamycin of 0.3 mg/kg and the SVP Rapamycin 1× Group received a dose level of SVP Rapamycin of 3 mg/kg.
# The Empty Nanoparticle Group received three monthly doses of pegsiticase and each of the SVP Rapamycin 0.1× Group and SVP Rapamycin 1× Group received three monthly doses of pegsiticase co-administered with SVP Rapamycin. All groups then received two monthly doses of pegsiticase alone. The SVP Rapamycin 0.1× Group received one tenth of the dose administered in the SVP Rapamycin 1× Group.
# [4] = test system: patients with serum uric acid levels greater than 6 mg/dl; assay: Phase 1b clinical trial, SVP Rapamycin alone, pegsiticase alone or SEL 212
# Description: The Phase 1b clinical trial enrolled 63 patients with serum uric acid levels greater than 6 mg/dl separated into 11 cohorts. A single intravenous infusion of SVP Rapamycin alone at the following ascending dose levels was administered to four cohorts in ascending order. Each cohort consisted of seven patients and were designated as follows: Cohort #1 (0.03 mg/kg), Cohort #3 (0.1 mg/kg), Cohort #5 (0.3 mg/kg) and Cohort #7 (0.5 mg/kg) collectively the SVP Rapamycin Cohorts. After a cohort of the SVP-Rapamycin alone had successfully and safely been dosed the corresponding dose level of SVP Rapamycin was combined with a fixed dose of pegsiticase (0.4 mg/kg). The combination was co-administered sequentially as a single intravenous infusion, with the SVP Rapamycin infusion preceding the pegsiticase infusion. The cohort designation is as follows for the six cohorts (5 patients per cohort), which were Cohort #2 (SVP Rapamycin 0.03 mg/kg+0.4 mg/kg pegsiticase), Cohort #4 (SVP Rapamycin 0.1 mg/kg+0.4 mg/kg pegsiticase), Cohort #6 (SVP Rapamycin 0.3 mg/kg+0.4 mg/kg pegsiticase), Cohort #10 (0.4 mg/kg pegsiticase+0.03 mg/kg SVP Rapamycin separated by 48 hours), Cohort #12 (SVP Rapamycin 0.15 mg/kg+0.4 mg/kg pegsiticase) and Cohort #14 (SVP Rapamycin 0.1 mg/kg+0.4 mg/kg pegsiticase) collectively the SEL 212 Cohorts. In Cohort #9 a fixed amount of pegsiticase alone at a dose level of 0.4 mg/kg was administered to five patients, which is referred to as the Pegsiticase Cohort. […] The subjects were monitored during a 30 day period post infusion with visits occurring on day 7, 14,21 and the end of trial visit on day 30. Blood and serum of each patient was evaluated for serum uric acid, ADAs (specifically anti-PEG, anti-uricase and anti-pegsiticase) and safety parameters. The primary objective of the Phase 1b clinical trial was to evaluate the safety and tolerability of SVP Rapamycin alone and in combination with a fixed dose of pegsiticase. A secondary clinical objective was to evaluate the ability of SVP Rapamycin co-administered with pegsiticase to reduce serum uric acid levels and mitigate the formation of uricase specific ADAs when compared to administration of pegsiticase alone.
# anti-uricase IgG = assay: Anti-uricase antibody titer by sandwich ELISA, monthly dosing in symptomatic gout patients; format: in vivo, human
# Description: Safety, tolerability, sUA, ADAs, and uricase activity were monitored.
# In this example, “responder” indicates an individual with serum uric acid values […] and serum uric acid ≤1 mg/dL on day 21 (stopping rule). In this example, a “non-responder” is a subject having serum uric acid levels ≥6 mg/dL at any time during a 28 day dosing cycle. The “maximum titer” is the maximum titer observed during a 28 day dosing cycle.
# Anti-uricase antibodies were detected using a sandwich ELISA. […] Uricase activity was measured fluorometrically.
# uricase activity = conditions: human, in vivo
# Description: Methods: Patients with symptomatic gout (≥1 tophus, gout flare within 6 months or gouty arthropathy) and elevated SUA ≥6 mg/dL were treated with fixed doses of the pegylated uricase (0.2 mg/kg) in combination with SEL-110 (0.1 and 0.15 mg/kg), or the pegylated uricase (0.2 or 0.4 mg/kg) alone as a control. Patients were infused in 28-day cycles up to 5 times. Safety, tolerability, sUA, ADAs, and uricase activity were monitored.
# Uricase activity was measured fluorometrically. As uricase converts uric acid into allantoin and H2O2, horseradish peroxidase was added and reached with H2O2 and a fluorescent probe to yield a quantifiable signal.
# patients with gout = conditions: cited from earlier work; for Patients with gout flares requiring treatment in a month: colchicine prophylaxis; for Flares per patient month (flare frequency): worked out from literature data
# [5] = test system: patients with refractory gout; conditions: cited from earlier work; for Flares per patient month (flare frequency): worked out from literature data; for Mean uric acid levels at four weeks: monthly dosing
molecule,measurement,setting,value
"Cc1nc(-c2ccc(OCC(C)C)c(C#N)c2)sc1C(=O)O [Febuxostat, febuxostat]",Subjects that required treatment for at least one gout flare,"[1]; 80 mg/day, out of 255 subjects",55
same,Flares per patient month (flare frequency),[1]; 80 mg/day,0.22 flares per patient month
same,Flares per patient month (flare frequency),"[1]; 80 mg/day, listed as febuxostat",at least 0.22 flares per patient month
same,Subjects that required treatment for at least one gout flare,"[1]; 120 mg/day, out of 250 subjects",90
same,Flares per patient month (flare frequency),[1]; 120 mg/day,0.36 flares per patient month
same,Flares per patient month (flare frequency),"[1]; 120 mg/day, listed as febuxostat",≥ 0.36 flares per patient month
Recombinant Pegylated Candida Urate Oxidase [pegsiticase],Uric acid levels,[2]; after the first dose in the treatment period,below 6 mg/dl
same,Uric acid levels,[2]; subsequent doses in the treatment period and challenge period,> 6 mg/dL
same,Uricase specific ADA levels (antibody formation),"[2]; uricase deficient mice, treatment period (days 0, 7, 14) and challenge period (days 35, 42)",developed uricase specific ADAs
same,Flare in 1st month,"[3]; individual subject with history of gout, SEL-037 0.8 mg/kg",no
same,Flare in 1st month,"[3]; individual subjects with history of gout, SEL-037 0.1 mg/kg, 0.1 mg/kg",no and yes (2×) and yes (positive for
same,Flare in 1st month,"[3]; individual subjects with history of gout, SEL-037 0.2 mg/kg, 0.2 mg/kg","no and yes (mild gout, right"
same,Subjects with a history of gout with signs of gout flare in the first month,"[3]; pegsiticase alone, 4 out of 7 patients",57%
same,Onset of reduction of average serum uric acid levels,"[3]; single IV infusion, 0.1 to 1.2 mg/kg",within hours
same,Serious adverse events and tolerability,"[3]; single IV infusion, five dose levels 0.1 to 1.2 mg/kg",no serious adverse events and was well tolerated
same,Uricase specific ADAs,"[3]; single IV infusion, varying levels",induced uricase specific ADAs in all subjects
same,Serum uric acid maintained,"[3]; tolerated dose, 30 day period, in the absence of inhibitory uricase specific ADAs",< 6 mg/dL
same,Uricase specific ADAs,nonhuman primates,high levels of uricase specific ADAs
same,Subjects that returned to baseline serum uric acid levels by day 30,[4]; Cohort #9: pegsiticase alone 0.4 mg/kg,four of the five
same,Enzyme activity past day 14,"[4]; pegsiticase alone 0.4 mg/kg, Cohort #3 Phase 1a and Cohort #9 Phase 1b",loose the enzyme activity
same,Uricase specific ADA formation,"[4]; pegsiticase alone 0.4 mg/kg, Cohort #3 Phase 1a and Cohort #9 Phase 1b, resulting in return to baseline serum uric acid",uricase specific ADA formation at day 14
same,"Serum uric acid, initial control","[4]; pegsiticase alone 0.4 mg/kg, Cohort #3 Phase 1a and Cohort #9 Phase 1b, up to day 14",below 6 mg/dL
same,Treatment periods with maximum antibody titers <1080,"anti-uricase IgG; 28-day cycles, SEL-212 111/133, pegylated uricase alone 1/7 treatment periods",14.3%
same,Anti-uricase antibodies,"anti-uricase IgG; pegylated uricase alone, discontinued from the study within the first two months",developed high titer antibodies
same,Average uricase activity AUC,uricase activity,3437 mU/dL*wk
"O=C(O)CSc1nnc(Br)n1-c1ccc(C2CC2)c2ccccc12 [Lesinurad, lesinurad]",Patients with gout flares requiring treatment in a month,"patients with gout; 200 mg daily, out of 46 patients",10
same,Time of efficacy (area under curve of mean AIN levels over time),patients with gout; 200 mg/day,158.5
same,Flares per patient month (flare frequency),patients with gout; 200 mg/day,0.22 flares per patient month
same,Patients with gout flares requiring treatment in a month,"patients with gout; 400 mg daily, out of 42 patients",13
same,Time of efficacy (area under curve of mean AIN levels over time),patients with gout; 400 mg/day,165.8
same,Flares per patient month (flare frequency),patients with gout; 400 mg/day,0.31 flares per patient month
same,Patients with gout flares requiring treatment in a month,"patients with gout; 600 mg daily, out of 48 patients",15
same,Time of efficacy (area under curve of mean AIN levels over time),patients with gout; 600 mg/day,167.5
same,Flares per patient month (flare frequency),patients with gout; 600 mg/day,0.31 flares per patient month
pegloticase [KRYSTEXXA®],Treated subjects that developed ADAs,[5]; all KRYSTEXXA-treated subjects,89%
same,Flares per patient over the first 3 months,"[5]; biweekly pegloticase, 85 patients",2.3 flares per patient
same,Time of efficacy (area under curve of mean AIN levels over time),"[5]; biweekly, nonresponders",Nonresponders-84.35
same,Time of efficacy (area under curve of mean AIN levels over time),"[5]; biweekly, responders",Responders-26.6
same,Flares per patient month (flare frequency),[5]; biweekly,0.77 flares per patient month
same,Subjects classified as non-responders,[5]; monthly dosing cohorts,65%
same,Subjects classified as responders (uric acid below 6 mg/dl for 80% of the time at months three and six),[5]; monthly dosing cohorts,35%
same,Mean uric acid levels at four weeks,[5]; non-responders,above 6 mg/dl
same,Mean uric acid levels at four weeks,[5]; responders,above 4 mg/dl
same,Flares per patient over the first 3 months,"[5]; monthly pegloticase, 84 patients",2.7 flares per patient
same,Time of efficacy (area under curve of mean AIN levels over time),"[5]; monthly, nonresponders",Nonresponders-99.75
same,Time of efficacy (area under curve of mean AIN levels over time),"[5]; monthly, responders",Responders-53.55
same,Flares per patient month (flare frequency),"[5]; monthly, listed as Pegloticase",0.90 flares per patient month
same,Flares per patient month (flare frequency),"[5]; monthly, listed as pegloticase",0.9 flares per patient month
